According to PubChem BioAssay AID652155 (Sanford-Burnham Center for Chemical Genomics, 2013):
Active and inactive are the calls of the source.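 How the source made its calls: active means compounds with mean IC50 of 15 µM or lower in the worm heat shock reporter counterscreen; inactive means the rest.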

tested on: C. elegans VP596 hsp-16.2 GFP/RFP heat-shock reporter; assay: inhibitors of heat-driven hsp-16.2 GFP expression – whole organism, C. elegans VP596, GFP/RFP ratio, counter-screen for SKN-1 inhibitor project, SAR follow-up (AID 652155)

SMILES	IC50
Fc1ccc(COc2ccc(CNC3CCCC3)cc2Cl)cc1	> 64 µM (inactive)
CCOc1cc(CNC2CCCC2)cc(Cl)c1OCc1ccccc1F	> 64 µM (inactive)
CCOc1cc(CNC2CCCCC2)cc(Cl)c1OCc1ccc(F)cc1	> 64 µM (inactive)
Fc1ccc(-c2csc(-c3ccncc3)n2)cc1	> 64 µM (inactive)
Clc1ccc(-c2csc(-c3ccncc3)n2)cc1	> 64 µM (inactive)
CCOc1cc(CNC2CCCC2)cc(Cl)c1OCc1ccc(Cl)cc1	> 64 µM (inactive)
Fc1ccc(-c2csc(-c3cccnc3)n2)cc1	> 64 µM (inactive)
Cc1ccc(-c2csc(-c3ccncc3)n2)cc1	> 64 µM (inactive)
CCOc1cc(CNC2CCC2)cc(Cl)c1OCc1ccc(F)cc1	> 64 µM (inactive)
CCOc1cc(CNC2CCCC2)cc(Cl)c1OCc1ccc(C)cc1	> 64 µM (inactive)
COc1ccc(-c2csc(-c3cccnc3)n2)cc1	> 64 µM (inactive)
CCOc1cc(CNC2CCCC2)cc(Cl)c1OCc1ccccc1Cl	> 64 µM (inactive)
CCOc1cc(CNC2CCCC2)cc(Cl)c1OC	> 64 µM (inactive)
Clc1ccc(-c2csc(-c3cccnc3)n2)cc1	> 64 µM (inactive)
c1ccc(-c2csc(-c3cccnc3)n2)cc1	> 64 µM (inactive)
CCOc1cc(CNC2CCCC2)ccc1OCc1ccc(F)cc1	> 64 µM (inactive)
CCOc1cc(CNC2CCCC2)cc(Cl)c1OCc1ccc(F)cc1	> 64 µM (inactive)
COc1ccc(-c2csc(-c3ccncc3)n2)cc1	> 64 µM (inactive)
CCOc1cc(CNC2CCCC2)cc(Cl)c1OCc1cccc(F)c1	> 64 µM (inactive)
Cc1ccc(-c2csc(-c3cccnc3)n2)cc1	> 64 µM (inactive)
CCOc1cc(CNCc2ccccc2)cc(Cl)c1OCc1ccc(F)cc1	> 64 µM (inactive)
CCOc1cc(CNc2ccccc2)cc(Cl)c1OCc1ccc(F)cc1	> 64 µM (inactive)
COc1cc(CNC2CCCC2)cc(Cl)c1OCc1ccc(F)cc1	> 64 µM (inactive)
CCOc1cc(C(=O)NC2CCCC2)cc(Cl)c1OCc1ccc(F)cc1	> 64 µM (inactive)
c1ccc(-c2csc(-c3ccncc3)n2)cc1	> 64 µM (inactive)
CCOc1cc(CNC2CC2)cc(Cl)c1OCc1ccc(F)cc1	> 64 µM (inactive)
CCOc1cc(CNC(C)C)cc(Cl)c1OCc1ccc(F)cc1	> 64 µM (inactive)
CCOc1cc(CNC2CCCC2)cc(Cl)c1OCc1ccc(OC)cc1	> 64 µM (inactive)
